Structures can show the parent of a compound that is named as a salt.
Biological target: butyrylcholinesterase (Homo sapiens, UniProt P06276)
Assay: biochemical
Conditions: not given

Sequence of butyrylcholinesterase (P06276 29-602): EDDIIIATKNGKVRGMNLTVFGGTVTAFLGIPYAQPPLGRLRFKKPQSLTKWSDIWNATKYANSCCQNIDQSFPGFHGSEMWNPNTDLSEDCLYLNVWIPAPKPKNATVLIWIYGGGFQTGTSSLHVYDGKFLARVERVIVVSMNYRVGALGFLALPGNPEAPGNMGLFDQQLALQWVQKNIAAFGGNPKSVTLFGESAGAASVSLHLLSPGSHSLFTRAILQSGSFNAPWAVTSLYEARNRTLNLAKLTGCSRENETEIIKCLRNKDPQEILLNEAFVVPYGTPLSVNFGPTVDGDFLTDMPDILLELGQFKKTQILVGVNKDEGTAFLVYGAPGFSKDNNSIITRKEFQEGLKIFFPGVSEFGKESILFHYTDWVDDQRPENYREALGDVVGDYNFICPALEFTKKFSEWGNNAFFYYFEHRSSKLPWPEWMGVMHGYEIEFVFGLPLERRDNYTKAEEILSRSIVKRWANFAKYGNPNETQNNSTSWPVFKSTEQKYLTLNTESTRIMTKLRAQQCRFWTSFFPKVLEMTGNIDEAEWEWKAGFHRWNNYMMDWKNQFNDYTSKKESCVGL

Row | SMILES | IC50 [µM]
1 | C=C(C)CN1CC[C@@]23C=C[C@@H](O)C[C@@H]2Oc2c(OC)ccc(c23)C1 [Example 17, (4aS,6S,SaS)-4a,5,9,10,11,12-hexahydro-3-methoxy-11-(2-methyl-prop-2-enyl)-6H-[1]benzofuro[3a,3,2-ef][2]benzazepin-6-ol] | > 100
2 | COc1ccc2c3c1O[C@H]1C[C@@H](O)C=C[C@@]31CCN(CC(C)c1cccc(Oc3ccccc3)c1)C2 (stereo partly drawn) [Example 32, 2-((4aS,6R,8aS)-6-hydroxy-3-methoxy-5,6,9,10-tetrahydro-4aH-[1]benzofuro[3a,3,2-ef][2]benzazepine-11(12H)-yl)-1-methyl-1-(3-phenoxyphenyl)ethane hydrochloride] | 0.36
3 | COc1ccc2c3c1O[C@H]1C[C@@H](O)C=C[C@@]31CCN(Cc1ccc(Br)cc1)C2 [Example 43, (4aS,6R,8aS)-11-(4-brombenzyl)-4a,5,9,10,11,12-hexahydro-3-methoxy-6H-[1]benzofuro[3a,3,2-ef][2]benzazepin-6-ol] | 0.0006
4 | C=C(C)CN1CC[C@@]23C=C[C@H](O)C[C@@H]2Oc2c(OC)ccc(c23)C1 [Example 46, (4aS,6R,8aS)-4a,5,9,10,11,12-hexahydro-3-methoxy-11-(2-methyl-prop-2-enyl)-6H-[1]benzofuro[3a,3,2-ef][2]benzazepin-6-ol, hydrochloride] | 0.34

Same assay, conditions: read-out: Butyrylcholinesterase IC-50

Row | SMILES | IC50 [µM]
5 | COc1cc(Br)c2c3c1O[C@@H]1C[C@H](O)C=C[C@]31CCN(C(=O)CN1CCN(C)CC1)C2 [Example 7, 1-[(4aR,6S,8aR)-1-bromo-6-hydroxy-3-methoxy-5,6,9,10-tetrahydro-4aH-[1]benzofuro[3a,3,2-ef][2]benzazepine-11(12H)-yl]-2-(4-methylpiperazinyl)ethan-1-one] | > 100
6 | C=CCNC(=S)N1CC[C@@]23C=C[C@@H](O)C[C@@H]2Oc2c(OC)cc(Br)c(c23)C1 [Example 12, (4aS,6R,8aS)-1-bromo-6-hydroxy-3-methoxy-4a,5,9,10-tetrahydro-6H-[1]benzofuro[3a,3,2-ef][2]benzazepine-11(12H)-thiocarbonic acid allylamide] | 11
7 | COc1ccc2c3c1O[C@H]1C[C@H](O)C=C[C@@]31CCN(CCN1CCOCC1)C2 [Example 15, (4aS,6S,8aS)-4a,5,9,10,11,12-hexahydro-11-(2-(morpholin-4-yl)-ethyl)-3-methoxy-6H-[1]benzofuro[3a,3,2-ef][2]benzazepin-6-ol] | > 100
8 | COc1ccc2c3c1O[C@H]1C[C@H](O)C=C[C@@]31CCN(C(=O)c1ccccc1)C2 [Example 19, (4aS,6S,8aS)-4a,5,9,10,11,12-hexahydro-3-methoxy-11-benzoyl-6H-[1]benzafuro[3a,3,2-ef][2]benzazepin-6-ol] | > 100
9 | COc1ccc2c3c1O[C@H]1C[C@H](O)C=C[C@@]31CCN(CC=C(C)C)C2 [Example 22, (4aS,6S,8aS)-4a,5,9,10,11,12-hexahydro-3-methoxy-11-(3-Methylbut-2-en-1-yl)-6H-[1]benzofuro[3a,3,2-ef][2]benzazepin-6-ol] | 20
10 | COc1ccc2c3c1O[C@H]1C[C@@H](O)C=C[C@@]31CCN(C(=O)c1ccccc1)C2 [Example 33, (4aS,6R,8aS)-4a,5,9,10,11,12-hexahydro-3-methoxy-11-benzoyl-6H-[1]benzofuro[3a,3,2-ef][2]benzazepin-6-ol] | > 100
11 | COc1ccc2c3c1O[C@H]1C[C@@H](O)C=C[C@@]31CCN(CC(C)C(=O)c1ccc(C)cc1)C2 (stereo partly drawn) [Example 35, 3-[(4aS,6R,8aS)-6-hydroxy-3-methoxy-5,6,9,10-tetrahydro-4aH-[1]benzofuro[3a,3,2-ef][2]benzazepine-11(12H)-yl]-2-methyl-1(- 4-methylphenyl)propan-1-one, hydrochloride] | 0.4
12 | COc1ccc2c3c1O[C@H]1C[C@@H](O)C=C[C@@]31CCN(C(=O)CN1CCCCC1)C2 [Example 36, 1-[(4aS,6R,8aS)-6-hydroxy-3-methoxy-5,6,9,10-tetrahydro-4aH-[1]benzofuro[3a,3,2-ef][2]benzazepine-11(12H)-yl]-2-(1-piperidyl)ethan-1-one] | > 100
13 | COc1ccc2c3c1O[C@H]1C[C@@H](O)C=C[C@@]31CCN(C(=O)CCN1CCCC1)C2 [Example 38, 1-[(4aS,6R,8aS)-6-hydroxy-3-methoxy-5,6,9,10-tetrahydro-4aH-[1]benzofuro[3a,3,2-ef][2]benzazepine-11(12H)-yl]-3-(1-pyrrolidyl) propan-1-one] | 2.4
14 | COc1ccc2c3c1O[C@H]1C[C@@H](O)C=C[C@@]31CCN(CCc1ccccc1Nc1c(Cl)cccc1Cl)C2 [Example 40, 1-((4aS,6R,8aS)-6-hydroxy-3-methoxy-5,6,9,10-tetrahydro-4aH-[1]benzofuro[3a,3,2-ef][2]benzazepine-11(12H)-yl)-2-[2-(2,6-dichloranilino)]-phenylethane] | 1.3
15 | COc1ccc2c3c1O[C@H]1C[C@@H](O)C=C[C@@]31CCN(C(=O)c1ccc(Br)cc1)C2 [Example 41, (4aS,6R,8aS)-4a,5,9,10,11,12-hexahydro-3-methoxy-11-(4-bromo-benzoyl)-6H-[1]benzofuro[3a,3,2-ef][2]benzazepin-6-ol] | 30
16 | CCOC(=O)CN1CC[C@@]23C=C[C@H](O)C[C@@H]2Oc2c(OC)ccc(c23)C1 [Example 44, Ethyl-2-((4aS,6R,8aS)-6-hydroxy-3-methoxy-5,6,9,10-tetrahydro-4aH-[1]benzofuro[3a,3,2-ef][2]benzazepine-11(12H)-yl)acetate] | 42
17 | CCOC(=O)CCN1CC[C@@]23C=C[C@H](O)C[C@@H]2Oc2c(OC)ccc(c23)C1 [Example 47, Ethyl-3-((4aS,6R,8aS)-6-hydroxy-3-methoxy-5,6,9,10-tetrahydro-4aH-[1]benzofuro[3a,3,2-ef][2]benzazepine-11(12H)-yl)propanoate, hydrochloride] | 51
18 | COc1ccc2c3c1O[C@H]1C[C@@H](O)C=C[C@@]31CCN(C(=O)CN1CCOCC1)C2 [Example 48, 1-[(4aS,6R,8aS)-6-hydroxy-3-methoxy-5,6,9,10-tetrahydro-4aH-[1]benzofuro[3a,3,2-ef][2]benzazepine-11(12H)-yl]-2-(4-morpholinyl) ethan-1-one] | 3.8
19 | CCN(CC)CC(=O)N1CC[C@@]23C=C[C@H](O)C[C@@H]2Oc2c(OC)ccc(c23)C1 [Example 49, 1-((4aS,6R,8aS)-6-hydroxy-3-methoxy-5,6,9,10-tetrahydro-4aH-[1]benzofuro[3a,3,2-ef][2]benzazepine-11(12H)-yl]-2-(diethylamino) ethan-1-one] | 40
20 | COc1ccc2c3c1O[C@H]1C[C@@H](O)C=C[C@@]31CCN(CCCN(C)C)C2 [Example 52, (4aS,6R,8aS)-11-((3-dimethylamino)propyl)-3-methoxy-5,6,9,10,11,12-hexahydro-4aH-[1]benzofuro[3a,3,2-ef][2]benzazepin-6-ol] | 2.1
21 | COc1ccc2c3c1O[C@H]1C[C@@H](O)C=C[C@@]31CCN(C(=O)NC1CCCCC1)C2 [Example 53, (4aS,6R,8aS)-N11-cydohexyl-6-hydroxy-3-methoxy-5,6,9,10-tetrahydro-4aH-[1]benzofuro[3a, 3,2-ef][2]benzazepine-11(12H)-carbonic acid isopropylamide] | > 100

Reference: patent US20070105837A1, “Novel derivatives of 4a,5,9,10,11,12-hexahydrobenzofuro[3a,3,2][2]-benzazepine, method for the production thereof and use thereof in the production of medicaments” (priority 2003, published 2007)
